# Measured values reported in US10835542B2, “9-aminomethyl minocycline compounds and use thereof in treating community-acquired bacterial pneumonia (CABP)” (Paratek Pharmaceuticals, Inc., priority 2016, dated 2020).
# Read-outs that look alike come from different tables or passages of the source.
# Columns and labels:
# [1] = Intra-pulmonary (ELF, AC/AM by BAL) and plasma PK after multiple iv doses in healthy adult subjects; assay type: in vivo, human; settings: for Kp at 0.5 h / Kp at 1 h / Kp at 2 h / Kp at 4 h / Kp at 8 h / Kp at 12 h / Kp at 24 h / AUC / Kp: intravenous, 100 mg; for concentration at 0.5 h: 0.5 h after fifth 100 mg iv dose; for concentration at 1 h: 1 h after fifth 100 mg iv dose; for concentration at 2 h: 2 h after fifth 100 mg iv dose; for concentration at 4 h: 4 h after fifth 100 mg iv dose; for concentration at 8 h: 8 h after fifth 100 mg iv dose; for concentration at 12 h: 12 h after fifth 100 mg iv dose; for concentration at 24 h: 24 h after fifth 100 mg iv dose
# Description: Concomitant blood samples were taken to compare tissue with serum antibiotic concentrations. […]
# One standard bronchoscopy was performed for each subject. […] A blood sample was taken at the time of bronschoscopy for plasma urea measurement.
# During the bronchoscopy 4 aliquots of 50 mL each of sterile saline solution were instilled into the right lobe of the lungs, immediately aspirated, and placed on ice. The first bronchioalveolar lavage aliquot instilled (BALX) fraction was prepared and analyzed separately from subsequent instillations. The aspirate from the second through the fourth instillation, once pooled, represented the BAL fraction. An aliquot of BAL was removed and used to determine the cell count and differential cell composition including pulmonary macrophages. The remaining supernatant was centrifuged and the supernatant and cell pellet were immediately frozen pending analysis. An aliquot of the BAL supernatant was frozen separately for urea assay. The amount of test article detected in the cell pellet was normalized by the corresponding fraction of macrophages. Fraction BALX was analyzed in a similar manner, except the cell pellet was not assessed or assayed. A blood sample to determine urea concentration was obtained at the time of the second instillation (±3 minutes). The concentration of test article detected in the BALX and BAL fluid was normalized by the dilution factor with respect to urea levels detected in the BALX and BAL fractions respectively.
# All completed subjects with evaluable plasma PK parameter data were included in the PK data analysis.
# All the biofluid concentrations were expressed in ng/mL. All concentrations below the limit of quantification (BLQ) or missing data were labeled as such in the concentration data listings. Concentrations BLQ were treated as zero in summary statistics for concentration data only. They were not considered for calculation of PK Parameters (with the exception of the predose samples). PK parameters were determined using non-compartmental method(s) using WinNonlin Pro.
# These were obtained from the above plasma PK parameter calculations (AUC0-24 and AUC0-12). The tigecycline concentration information was serve as an internal validation for assay sensitivity purposes.
# The volume of the lung ELF within the BAL fluid was estimated by (ureaBAL/ureaplasma), where ureaBAL and ureaplasma represented the concentrations of urea in the BAL fluid and plasma, respectively.
# AUCELF and AUCAC were determined from pooled pulmonary concentration data and were summarized by treatment group. […] For the tigecycline cohort there were 5 ELF and AC concentrations for each of the 4 timepoints over the 12 hour dosing interval.
# For PK blood collection and processing, all blood samples were taken by either direct venipuncture or an indwelling cannula inserted in a forearm vein (on the arm contralateral to the infusion site) at the timepoints specified in the Study Flowchart. The PK blood sample collected at the bronchoscopy scheduled time was obtained at the time of the second BAL instillation (±3 minutes) from the arm contralateral to the infusion site.
# Blood samples were collected into labeled 4 mL tubes containing sodium heparin. Immediately after the sample was collected, the tube was gently inverted 5 to 8 times to thoroughly mix the anticoagulant and then placed upright in a cryoblock or test tube rack surrounded by ice until centrifugation. Samples were centrifuged at 1500×g (gravity) for 10 minutes at approximately 4° C. within 30 minutes of collection. The resultant plasma was divided into 2 equal aliquots, placed in individual cryovials, and immediately frozen at −70° C. or colder within 1 hour of collection. The tubes were kept frozen at −70° C. or colder pending shipment to the bioanalytical laboratory.
# [2] = Phase 1 multiple oral dose study: urine PK; assay type: in vivo, human
# Description: Urine samples were only collected from a subset of subjects because analysis of urine PK was added by an amendment to the study protocol after the study was already underway.
# Additional parameters Ae0-4, Ae4-8, Ae8-12, Ae12-24, and Ae0-24 were also calculated.
# [3] = human, ELF (epithelial lung fluid from BAL) relative to plasma, read-out: ELF to Plasma (Mean, SD)
# [4] = human, alveolar macrophages (AM), read-out: AM concentration (mean ± SD)
# [5] = human, epithelial lining fluid (ELF), read-out: ELF concentration (mean ± SD)
# [6] = human, read-out: AM to Plasma (Mean, SD)
# [7] = human, plasma, read-out: Plasma concentration at time of BAL (mean ± SD)
smiles,measurement,setting,value
"CN(C)c1cc(CNCC(C)(C)C)c(O)c2c1C[C@H]1C[C@H]3[C@H](N(C)C)C(O)=C(C(N)=O)C(=O)[C@@]3(O)C(O)=C1C2=O [Compound 1, 9-[(2,2-dimethyl-propylamino)-methyl]-minocycline]",mean concentration in ELF higher than that in plasma,"[1]; FIG. 1, concentration vs. time profile",at least 40%
same,"maximum concentration (plasma), mean ± SD",[1]; after the fifth 100 mg iv dose,2.26 ± 0.76 µg/mL
same,Kp at 0.5 h,[1]; [3],0.95 ± 0.56
same,Kp at 1 h,[1]; [3],2.72 ± 1.26
same,Kp at 2 h,[1]; [3],1.5 ± 0.61
same,Kp at 4 h,[1]; [3],1.79 ± 0.49
same,Kp at 8 h,[1]; [3],1.07 ± 0.45
same,Kp at 12 h,[1]; [3],1.44 ± 0.57
same,Kp at 24 h,[1]; [3],1.65 ± 0.86
same,AUC,"[1]; human, ELF (epithelial lung fluid from BAL), AUC0-24 based on mean concentration at each BAL sampling time, read-out: ELF AUCmean",17.2 µg·h/mL
same,AUC,"[1]; human, ELF (epithelial lung fluid from BAL), AUC0-24 based on median concentration at each BAL sampling time, read-out: ELF AUCmedian",16.7 µg·h/mL
same,Kp,"[1]; human, alveolar cells (AC) / plasma, based on AUC0-24 of mean concentrations, read-out: Ratio AC:Plasma (AUCmean)",25.8
same,Kp,"[1]; human, alveolar cells (AC) / plasma, based on AUC0-24 of median concentrations, read-out: Ratio AC:Plasma (AUCmedian)",24.8
same,AUC,"[1]; human, alveolar cells (AC, BAL cell pellet), AUC0-24 based on mean concentration at each BAL sampling time, read-out: AC AUCmean",302 µg·h/mL
same,AUC,"[1]; human, alveolar cells (AC, BAL cell pellet), AUC0-24 based on median concentration at each BAL sampling time, read-out: AC AUCmedian",292 µg·h/mL
same,Kp,"[1]; human, alveolar cells (AC, mostly AM) / plasma, FIG. 1, concentration vs. time profile, read-out: mean concentration in AC (mostly AM) higher than that in plasma",~25
same,concentration at 0.5 h,[1]; [4],14.3 ± 9.3 µg/mL
same,concentration at 1 h,[1]; [4],12.8 ± 8.48 µg/mL
same,concentration at 2 h,[1]; [4],10.8 ± 7.59 µg/mL
same,concentration at 4 h,[1]; [4],18 ± 7.17 µg/mL
same,concentration at 8 h,[1]; [4],12.3 ± 4.7 µg/mL
same,concentration at 12 h,[1]; [4],12.3 ± 4.61 µg/mL
same,concentration at 24 h,[1]; [4],10.4 ± 4.04 µg/mL
same,Kp,"[1]; human, epithelial lining fluid (ELF) / plasma, penetration ratio based on AUC0-24 of mean concentrations, read-out: Ratio ELF:Plasma (AUCmean)",1.47
same,Kp,"[1]; human, epithelial lining fluid (ELF) / plasma, penetration ratio based on AUC0-24 of median concentrations, read-out: Ratio ELF:Plasma (AUCmedian)",1.42
same,concentration at 0.5 h,[1]; [5],1.73 ± 1.01 µg/mL
same,concentration at 1 h,[1]; [5],2.25 ± 0.72 µg/mL
same,concentration at 2 h,[1]; [5],1.51 ± 0.94 µg/mL
same,concentration at 4 h,[1]; [5],0.95 ± 0.33 µg/mL
same,concentration at 8 h,[1]; [5],0.58 ± 0.19 µg/mL
same,concentration at 12 h,[1]; [5],0.61 ± 0.29 µg/mL
same,concentration at 24 h,[1]; [5],0.41 ± 0.13 µg/mL
same,Kp at 0.5 h,[1]; [6],8.12 ± 5.95
same,Kp at 1 h,[1]; [6],13.8 ± 7.38
same,Kp at 2 h,[1]; [6],12.3 ± 6.57
same,Kp at 4 h,[1]; [6],34.7 ± 15.1
same,Kp at 8 h,[1]; [6],23.1 ± 11.2
same,Kp at 12 h,[1]; [6],29 ± 8.78
same,Kp at 24 h,[1]; [6],40.3 ± 10.3
same,AUC,"[1]; human, plasma, AUC0-24 based on mean concentration at each BAL sampling time, read-out: Plasma AUCmean",11.7 µg·h/mL
same,AUC,"[1]; human, plasma, AUC0-24 based on median concentration at each BAL sampling time, read-out: Plasma AUCmedian",11.8 µg·h/mL
same,concentration at 0.5 h,[1]; [7],1.8 ± 0.13 µg/mL
same,concentration at 1 h,[1]; [7],0.89 ± 0.19 µg/mL
same,concentration at 2 h,[1]; [7],0.93 ± 0.33 µg/mL
same,concentration at 4 h,[1]; [7],0.59 ± 0.15 µg/mL
same,concentration at 8 h,[1]; [7],0.56 ± 0.12 µg/mL
same,concentration at 12 h,[1]; [7],0.42 ± 0.07 µg/mL
same,concentration at 24 h,[1]; [7],0.27 ± 0.05 µg/mL
same,Vd,"[1]; human, plasma, after the fifth 100 mg iv dose, read-out: volume of distribution, mean ± SD",165 ± 58 L
same,"Ae0-24, Mean (CV)","[2]; 300 mg, Day 1 (n = 2)",20.37 (8.3) mg
same,"Fe0-24, Mean (CV)","[2]; 300 mg, Day 1 (n = 2)",6.79 (8.3) %
same,"Ae0-24, Mean (CV)","[2]; 300 mg, Day 5 (n = 3)",26.14 (14.6) mg
same,"Fe0-24, Mean (CV)","[2]; 300 mg, Day 5 (n = 3)",8.71 (14.6) %
same,"Ae0-24, Mean (CV)","[2]; 450 mg, Day 5 (n = 5)",30.81 (33.0) mg
same,"Fe0-24, Mean (CV)","[2]; 450 mg, Day 5 (n = 5)",6.85 (33.0) %
same,"Ae0-24, Mean (CV)","[2]; 600 mg, Day 1 (n = 1)",31.96 mg
same,"Fe0-24, Mean (CV)","[2]; 600 mg, Day 1 (n = 1)",5.33%
same,"Ae0-24, Mean (CV)","[2]; 600 mg, Day 5 (n = 4)",51.82 (14.8) mg
same,"Fe0-24, Mean (CV)","[2]; 600 mg, Day 5 (n = 4)",8.64 (14.8) %
